Source: paper PMC2841478 (Journal of medicinal chemistry, 2008)
“Also recorded” adds a separate entry of the source. Like-named read-outs stand apart in the source and are kept apart here.

How the values were obtained:
[1] = target: T1, dopamine transporter (DAT) (Rattus norvegicus, UniProt P23977); assay: Competitive binding at the DAT with [3H]WIN 35,428
[2] = target: T2, serotonin transporter (5-HTT) (Rattus norvegicus, UniProt P31652); assay: Competitive binding at the 5-HTT with [3H]paroxetine
[3] = target: T3, norepinephrine transporter (NET) (Rattus norvegicus, UniProt Q63380); assay: Competitive binding at the NET with [3H]nisoxetine
[4] = target: T1, dopamine transporter (DAT); conditions: read-out: DAT, IC50 [3H]12; comparison data; cited from earlier work
[5] = target: T2, serotonin transporter (5-HTT); conditions: read-out: 5-HTT, Ki [3H]paroxetine; comparison data; cited from earlier work
[6] = target: T3, norepinephrine transporter (NET); conditions: read-out: NET, Ki [3H]nisoxetine; comparison data; cited from earlier work
[7] = system: dopamine transporter (DAT); conditions: cited from earlier work
[8] = system: drug self-administration; conditions: three rhesus monkeys; cited from earlier work
[9] = system: reinforcement; conditions: squirrel monkeys; cited from earlier work
[10] = system: cocaine self-administration; conditions: rhesus monkeys, multiple second-order schedule; cited from earlier work

T2 sequence (P31652 whole entry): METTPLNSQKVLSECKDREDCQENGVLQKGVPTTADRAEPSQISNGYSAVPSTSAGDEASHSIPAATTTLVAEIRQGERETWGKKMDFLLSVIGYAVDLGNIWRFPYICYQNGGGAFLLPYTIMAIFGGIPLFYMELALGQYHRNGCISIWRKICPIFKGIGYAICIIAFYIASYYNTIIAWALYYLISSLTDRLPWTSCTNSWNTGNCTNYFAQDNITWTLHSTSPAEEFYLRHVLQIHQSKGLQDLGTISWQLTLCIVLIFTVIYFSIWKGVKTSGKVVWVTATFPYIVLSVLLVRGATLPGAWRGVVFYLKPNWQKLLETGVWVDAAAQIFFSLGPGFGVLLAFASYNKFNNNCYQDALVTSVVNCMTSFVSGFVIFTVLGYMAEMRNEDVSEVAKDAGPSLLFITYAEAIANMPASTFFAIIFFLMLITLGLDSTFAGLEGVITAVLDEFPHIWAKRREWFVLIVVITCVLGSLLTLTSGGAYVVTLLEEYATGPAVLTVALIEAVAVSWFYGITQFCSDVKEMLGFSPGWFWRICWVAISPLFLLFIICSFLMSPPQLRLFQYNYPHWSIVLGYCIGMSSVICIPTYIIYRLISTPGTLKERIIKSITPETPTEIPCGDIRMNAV
T3 sequence (Q63380 1-617): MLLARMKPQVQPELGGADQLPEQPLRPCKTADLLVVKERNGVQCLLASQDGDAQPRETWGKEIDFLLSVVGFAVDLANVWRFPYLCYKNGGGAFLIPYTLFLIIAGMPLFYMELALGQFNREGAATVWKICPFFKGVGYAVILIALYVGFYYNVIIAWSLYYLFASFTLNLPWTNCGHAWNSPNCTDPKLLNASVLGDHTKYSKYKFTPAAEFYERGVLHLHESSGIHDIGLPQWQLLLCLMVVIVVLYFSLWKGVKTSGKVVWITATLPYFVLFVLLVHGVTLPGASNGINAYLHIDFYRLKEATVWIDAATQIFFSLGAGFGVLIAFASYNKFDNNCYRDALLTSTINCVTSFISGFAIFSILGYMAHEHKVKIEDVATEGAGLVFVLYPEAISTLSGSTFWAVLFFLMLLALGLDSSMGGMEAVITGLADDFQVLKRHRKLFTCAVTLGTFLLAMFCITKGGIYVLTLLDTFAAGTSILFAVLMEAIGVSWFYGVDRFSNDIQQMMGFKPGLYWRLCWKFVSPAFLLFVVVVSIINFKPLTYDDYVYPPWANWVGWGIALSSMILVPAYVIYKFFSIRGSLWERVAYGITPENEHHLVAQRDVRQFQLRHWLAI
T1 sequence (P23977 whole entry): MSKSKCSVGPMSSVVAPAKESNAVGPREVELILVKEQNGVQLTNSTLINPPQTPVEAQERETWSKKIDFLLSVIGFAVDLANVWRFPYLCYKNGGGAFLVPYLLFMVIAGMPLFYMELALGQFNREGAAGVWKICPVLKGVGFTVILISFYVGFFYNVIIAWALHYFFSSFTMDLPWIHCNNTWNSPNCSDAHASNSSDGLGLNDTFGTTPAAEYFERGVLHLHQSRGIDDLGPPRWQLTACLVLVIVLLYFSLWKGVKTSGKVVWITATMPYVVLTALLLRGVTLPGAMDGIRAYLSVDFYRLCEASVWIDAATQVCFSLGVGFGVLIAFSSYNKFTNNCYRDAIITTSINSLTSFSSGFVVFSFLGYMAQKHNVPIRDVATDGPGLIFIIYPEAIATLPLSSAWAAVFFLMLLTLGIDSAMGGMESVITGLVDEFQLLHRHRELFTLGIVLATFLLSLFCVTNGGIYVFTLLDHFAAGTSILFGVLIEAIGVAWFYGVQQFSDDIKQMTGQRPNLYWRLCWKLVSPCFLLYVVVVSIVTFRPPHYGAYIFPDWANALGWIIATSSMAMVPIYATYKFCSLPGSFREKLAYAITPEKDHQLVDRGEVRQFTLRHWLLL

SMILES | Ki [2] | Ki [3] | also measured
COc1ccc([C@H]2C[C@@H]3CC[C@H]([C@H]2C(=O)OCCc2cc(I)c(N)c(I)c2)N3C)cc1 [8j, 3β-(4-Methoxyphenyl)tropane-2β-carboxylic Acid 2-(3,5-Diiodo-4-aminophenyl)ethyl Ester] | 1 ± 0.1 nM | 2600 ± 200 nM | IC50 [1]: 100 nM
COC(=O)[C@H]1[C@@H](c2ccc(Cl)c(C)c2)C[C@@H]2CC[C@H]1N2C [compound 6, 3β-(4-Chloro-3-methylphenyl)tropane-2β-carboxylic acid methyl ester] |  |  | IC50 [4]: 0.82 ± 0.05 nM; Ki [5]: 0.95 ± 0.04 nM; Ki [6]: 21.8 ± 0.6 nM; DAT occupancy ([7]; at the ED50 for reduction of cocaine self-administration): no detectable; also recorded: below the limits of detection; DAT occupancy ([7]; highest dose tested): greater than 70%; Maintenance of drug self-administration [8]: failed to maintain robust drug self-administration; Reinforcement effects [9]: did not exhibit any reinforcement effects
COc1ccc([C@H]2C[C@@H]3CC[C@H]([C@H]2C(=O)OCCc2ccc(N)c(Br)c2)N3C)cc1 [8g, 3β-(4-Methoxyphenyl)tropane-2β-carboxylic Acid 2-(3-Bromo-4-aminophenyl)ethyl Ester] | 4.1 ± 0.6 nM | 1850 ± 90 nM | 
COC(=O)[C@H]1[C@@H](c2ccc(OC)c(F)c2)C[C@@H]2CC[C@H]1N2C [7c, 3β-(3-Fluoro-4-methoxyphenyl)tropane-2β-carboxylic Acid Methyl Ester] | 4.8 ± 0.5 nM | 270 ± 50 nM | 
COC(=O)[C@H]1[C@@H](c2ccc(OC)cc2)C[C@@H]2CC[C@H]1N2C [7a, 3β-(4-Methoxyphenyl)tropane-2β-carboxylic Acid Methyl Ester] | 4.3 ± 0.5 nM | 1110 ± 64 nM | 
COc1ccc([C@H]2C[C@@H]3CC[C@H]([C@H]2C(=O)OCCc2ccc(NC(C)=O)cc2)N3C)cc1 [8f, 3β-(4-Methoxyphenyl)tropane-2β-carboxylic Acid 2-(4-Acetylaminophenyl)ethyl Ester] | 5.5 ± 0.5 nM | 1460 ± 30 nM | 
COc1ccc([C@H]2C[C@@H]3CC[C@H]([C@H]2C(=O)OCCc2ccc(N)c(I)c2)N3C)cc1 [8i, 3β-(4-Methoxyphenyl)tropane-2β-carboxylic Acid 2-(3-Iodo-4-aminophenyl)ethyl Ester] | 3.5 ± 1 nM | 2040 ± 300 nM | 
COc1ccc([C@H]2C[C@@H]3CC[C@H]([C@H]2C(=O)OC2CC2)N3C)cc1 [8b, 3β-(4-Methoxyphenyl)tropane-2β-carboxylic Acid Cyclopropyl Ester] | 29 ± 3 nM | 1230 ± 140 nM | 
COc1ccc([C@H]2C[C@@H]3CC[C@H]([C@H]2C(=O)OC2CCC2)N3C)cc1 [8c, 3β-(4-Methoxyphenyl)tropane-2β-carboxylic Acid Cyclobutyl Ester] | 100 ± 8 nM | > 3000 nM | 
COc1ccc([C@H]2C[C@@H]3CC[C@H]([C@H]2C(=O)OCCc2ccc(N)cc2)N3C)cc1 [8e, 3β-(4-Methoxyphenyl)tropane-2β-carboxylic Acid 2-(4-Aminophenyl)ethyl Ester] | 8.3 ± 0.4 nM | 2200 ± 300 nM | 
COc1ccc([C@H]2C[C@@H]3CC[C@H]([C@H]2C(=O)OCCc2cc(Br)c(N)c(Br)c2)N3C)cc1 [8h, 3β-(4-Methoxyphenyl)tropane-2β-carboxylic Acid 2-(3,5-Dibromo-4-aminophenyl)ethyl Ester] | 2 ± 0.4 nM | 2710 ± 250 nM | 
COC(=O)[C@H]1[C@@H](c2cc(I)c(OC)c(I)c2)C[C@@H]2CC[C@H]1N2C [7g, 3β-(3,5-Diiodo-4-methoxyphenyl)tropane-2β-carboxylic Acid Methyl Ester] | 7.5 ± 0.8 nM | > 5000 nM | 
CCOc1ccc([C@H]2C[C@@H]3CC[C@H]([C@H]2C(=O)OC)N3C)cc1 [7b, 3β-(4-Ethoxyphenyl)tropane-2β-carboxylic Acid Methyl Ester] | 1.7 ± 0.4 nM | 1690 ± 50 nM | 
COc1ccc([C@H]2C[C@@H]3CC[C@H]([C@H]2C(=O)OCCc2ccc([N+](=O)[O-])cc2)N3C)cc1 [8d, 3β-(4-Methoxyphenyl)tropane-2β-carboxylic Acid 2-(4-Nitrophenyl)ethyl Ester] | 2.9 ± 0.2 nM | 330 ± 20 nM | 
COc1ccc([C@H]2C[C@@H]3CC[C@H]([C@H]2c2cc(-c4ccc(C)cc4)no2)N3C)cc1 [compound 9, 3β-(4-Methoxyphenyl)-2β-[3-(4′-methylphenyl)isoxazol-5-yl]tropane] | 860 ± 170 nM | > 3000 nM | 
Cc1ccc(-c2cc([C@@H]3C4CCC(C[C@@H]3c3ccc(Cl)cc3)N4C)on2)cc1 (stereo partly drawn) [compound 3, 3β-(4-chlorophenyl)-2β-[3-(4′-methylphenyl)isoxazol-5-yl]tropane] |  |  | Cocaine maintained responding after pretreatment [10]: dose-dependent reduction
COc1ccc([C@H]2C[C@@H]3CC[C@H]([C@H]2C(=O)OC(C)C)N3C)cc1 [8a, 3β-(4-Methoxyphenyl)tropane-2β-carboxylic Acid Isopropyl Ester] | 135 ± 35 nM | 2010 ± 200 nM | 
COC(=O)[C@H]1[C@@H](c2ccc(OC)c(Br)c2)C[C@@H]2CC[C@H]1N2C [7d, 3β-(3-Bromo-4-methoxyphenyl)tropane-2β-carboxylic Acid Methyl Ester] | 3.1 ± 0.1 nM | 160 ± 20 nM | 
